Consider three molecules from patent US20100063085A1, “METHOD OF TREATING LEARNING IMPAIRMENT IN DOWN'S SYNDROME SUBJECTS” (University Court of The University of Dundee, priority 2008, published 2010).

In one experiment the target is MKK1 (Homo sapiens, UniProt Q02750). Description: MKK1 33P kinase assay. The format is biochemical. The conditions noted are these: read-out: MKK1 activity as percentage of control without inhibitor. The procedure:
(§1) All assays (25.5 μl) were carried out at room temperature (21° C.) and were linear with respect to time and enzyme concentrations under the conditions used. Assays were performed for 30 minutes except assays for LCK and PKB which were performed for 15 minutes using Multidrop Micro reagent dispensers (Thermo Electron Corporation, Waltham, Mass. 02454, USA) in a 96-well format. The concentration of […] [γ-^33P] ATP (800 cpm/pmol) in the assays was one of three concentrations (5, 20 or 50 μM) in order to be at or below Km for ATP for the enzyme. Assays were initiated with MgATP and stopped by addition of 5 μl of 0.5M orthophosphoric acid. Assays were then harvested onto P81 filterplates using a unifilter harvester (PerkinElmer, Boston, Mass. 02118, USA), with a wash buffer of 50 mM orthophosphoric acid. Filterplates were then air dried overnight. 10 μl of Microscint O was added per well prior to counting for radioactivity.
(§2) MKK1, JNK/SAPK1c, SAPK2a/p38, SAPK2b/p38β2, SAPK3/p38γ, SAPK4/p38δ, MAPK2/ERK2, MAPKAP-K1β, MAPKAP-K2, MSK1, PRAK, PKA, PKCα, PDK1, SGK, p70S6K, GSK3β, ROCK-II, PRK2, AMPK, CHK1, CHK2, CK2, PHK, LCK, were assayed according to Davies et al., (Davies, S. P., Reddy, H., Caivano, M. and Cohen, P. Biochem. J. 351, 95-105, 2000.
(§3) CSK and CDK2/cyclinA, were assayed according to Bain et al. (Bain J, McLauchlan H, Elliott M, Cohen P. Biochem J. 371, 199-204, 2003., except that ATP concentrations were either 5, 20 or 50 micromolar so that they were at or below the Km for ATP. The ATP concentrations used were as follows, 5 μM for assays of MKK1, SAPK3, SAPK4, GSK3β, PRK2 CK2 20 μm for assays of JNK, SAPK2β, MAPKAP-K2, MSK1, PRAK, PKA, […], PDK1, SGK, p70S6K, ROCK-II, CHK1, CHK2, CSK, CDK2, and 50 μM for assays of SAPK2a, MAPK2/ERK2, AMPK, LCK, PHK and MAPKAP-K1β.

For another experiment, the target named is smMLCK (Homo sapiens, UniProt Q15746). Put plainly: smMLCK 33P kinase assay. The format is biochemical. The note with it: read-out: smMLCK activity as percentage of control without inhibitor. As for the experimental part: as §1
smMLCK (5-20 mU) diluted in 50 mM Hepes pH 7.5, 0.1 mM EGTA, 1 mg.ml BSA, 0.1% β-mercaptoethanol is assayed against substrate peptide […] in an incubation containing 50 mM Hepes pH 7.5, 0.1 mM EGTA, 5 mM CaCl2, 10 μM calmodulin, 300 μM substrate peptide, 10 mM magnesium acetate and 0.05 mM [^33P-γ-ATP] (500-1000 cpm/pmole).

Another experiment relates to AMPK. Put plainly: AMPK 33P kinase assay. It is filed as biochemical. The procedure: as §1, §2, §3
The next experiment addresses Src (Homo sapiens, UniProt P12931). Description: biochemical. The note with it: read-out: Src activity as percentage of control without inhibitor; for remaining activity at 10 µM: inhibitor 10 μM. The procedure:
as §1, with “Assays” for “All assays (25.5 μl) were carried out at room temperature (21° C.) and were linear with respect to time and enzyme concentrations under the conditions used. Assays”
The following kinases were assayed against the substrates indicated. Aurora B was assayed against the substrate peptide […] (300 μM), ERK8 and MST-2 were both assayed against MBP (0.33 mg/ml). IKKβ was assayed against the substrate peptide […] (300 μM), JNK3 was assayed against 3 μM ATF2[19-96]. MAPKAP-K3 and PKD1 were both assayed against […] (30 μM), MARK3 was assayed against CHKtide ([…]) substrate peptide (300 μM). MNK1 and MNK2 were both assayed against eIF4E protein (0.5 mg/ml). NEK7 was assayed against […] (300 μM), PIM2 was assayed against […] (300 μM), ΔPH PKBβ-S474D was assayed against Crosstide (30 μM), PLK1 was assayed against […] (300 μM). PRK2 was assayed against Long S6 peptide, […] (30 μM), RSK2 was assayed against […] (30 μM), SRC was assayed against cdc2 peptide, […], (300 μM) and SRPK1 was assayed against peptide […] (300 μM). All enzymes were diluted in 50 mM Tris/HCl pH 7.5, 0.1 mM EGTA, 1 mg/ml BSA, 0.1% β-mercaptoethanol buffer and assayed in an incubation containing 50 mM Tris/HCl pH7.5, 0.1 mM EGTA, 0.1% β-mercaptoethanol, CAMK-1 (5-20 mU) diluted in 50 mM Tris/HCl pH 7.5, 0.1 mM EGTA, 1 mg/ml BSA, 0.1% β-mercaptoethanol is assayed against substrate peptide […] in an incubation containing 50 mM Tris/HCl pH 7.5, 0.1 mM EGTA, 0.5 mM CaCl2, 0.3 μM calmodulin, 0.1% β-mereaptoethanol, 300 μM substrate peptide, 10 mM magnesium acetate and 0.05 mM [^33P-γ-ATP] (500-1000 cpm/pmole). EF2K (5-20 mU) diluted in 50 mM Hepes pH 6.6, 0.1% β-mercaptoethanol, 1 mg/ml BSA is assayed against a substrate peptide […] in an incubation containing 50 mM Hepes pH 6.6, 0.2 mM CaCl2, 0.3 μM Calmodulin, 0.05% b-mercaptoethanol, 300 μM substrate peptide, 10 mM magnesium acetate and 0.05 mM [^33P-γ-ATP] (500-1000 cpm/pmole).

For a further experiment, the target named is CDK2/cyclin A (Homo sapiens, UniProt P24941). Put plainly: CDK2/cyclin A 33P kinase assay. The note with it: read-out: CDK2/cyclin A activity as percentage of control without inhibitor. The format is biochemical. The procedure: as §1, §3

Where two headings read alike, the source gives them in different places.

Chain of MKK1 (Q02750 whole entry, species assumed): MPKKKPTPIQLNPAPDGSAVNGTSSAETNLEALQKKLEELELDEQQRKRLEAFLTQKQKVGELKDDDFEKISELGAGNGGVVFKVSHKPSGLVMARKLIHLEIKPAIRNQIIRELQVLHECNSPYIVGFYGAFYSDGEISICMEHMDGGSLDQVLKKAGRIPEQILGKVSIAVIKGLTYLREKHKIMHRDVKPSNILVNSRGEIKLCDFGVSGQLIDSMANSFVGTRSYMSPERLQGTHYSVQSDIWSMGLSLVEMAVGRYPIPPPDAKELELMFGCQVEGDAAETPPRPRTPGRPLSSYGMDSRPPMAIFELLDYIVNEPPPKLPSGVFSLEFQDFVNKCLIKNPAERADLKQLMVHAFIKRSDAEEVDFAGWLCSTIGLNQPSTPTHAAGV
Chain of Src (P12931 whole entry, species assumed): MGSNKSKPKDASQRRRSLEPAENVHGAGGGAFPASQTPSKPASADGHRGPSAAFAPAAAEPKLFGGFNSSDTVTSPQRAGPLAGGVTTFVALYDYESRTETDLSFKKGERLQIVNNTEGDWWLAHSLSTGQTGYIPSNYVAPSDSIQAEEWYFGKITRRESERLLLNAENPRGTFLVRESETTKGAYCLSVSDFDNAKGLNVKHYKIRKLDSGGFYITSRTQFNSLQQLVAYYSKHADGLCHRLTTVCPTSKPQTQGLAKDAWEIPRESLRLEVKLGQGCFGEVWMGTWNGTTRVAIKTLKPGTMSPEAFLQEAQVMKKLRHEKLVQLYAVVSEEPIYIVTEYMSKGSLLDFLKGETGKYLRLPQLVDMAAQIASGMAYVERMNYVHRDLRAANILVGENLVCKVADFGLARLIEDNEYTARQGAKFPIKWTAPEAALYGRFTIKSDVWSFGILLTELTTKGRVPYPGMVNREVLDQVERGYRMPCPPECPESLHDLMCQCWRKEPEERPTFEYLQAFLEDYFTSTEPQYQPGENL

On to `COc1ccc2c3c([nH]c2c1)C(C)=NCC3` [Harmaline], for which the remaining activity at 1 µM was found to be 47% on MKK1 (inhibitor 1 μM), 92% on smMLCK (inhibitor 1 μM), 47% on Src (inhibitor 1 μM) and 99% at CDK2/cyclin A. Also, the remaining activity at 10 µM stood at 39% on MKK1 (inhibitor 10 μM), 104% on smMLCK (inhibitor 10 μM), 65% at Src and 98% on CDK2/cyclin A. Moreover, the “AMPK activity as percentage of control without inhibitor” value in the experiment with AMPK (inhibitor 1 μM) is reported as 97%; with AMPK (inhibitor 10 μM), 83%.
For the molecule `CC1=NCCc2c1[nH]c1cc(O)ccc21` [Harmalol], the remaining activity at 1 µM at MKK1 (inhibitor 1 μM) was found to be 92%; at smMLCK (inhibitor 1 μM), 76%; on Src (inhibitor 1 μM), 101%; at CDK2/cyclin A (inhibitor 1 μM), 97%. Also, the remaining activity at 10 µM is 66% on MKK1 (inhibitor 10 μM), 71% at smMLCK (inhibitor 10 μM), 83% at Src and 77% on CDK2/cyclin A (inhibitor 10 μM). Further, the “AMPK activity as percentage of control without inhibitor” value came to 92% in the experiment on AMPK (inhibitor 1 μM) and 52% in the experiment on AMPK (inhibitor 10 μM).
Regarding `COc1ccc2c(c1)[nH]c1c(C)nccc12` [Harmine], the remaining activity at 1 µM is 76% at MKK1, 88% on smMLCK, 108% at Src and 98% on CDK2/cyclin A. For the same molecule, the remaining activity at 10 µM is 73% at MKK1, 76% at smMLCK and 62% on CDK2/cyclin A. Besides, the “AMPK activity as percentage of control without inhibitor” value was 98% with AMPK (inhibitor 1 μM) and 103% with AMPK (inhibitor 10 μM).
